In brackets after ≈: the same amount, converted by molar mass. Read-outs that look alike come from different tables or passages of the source. Some results are limits rather than exact numbers.

The values that follow come from patent US4605658A (priority 1983, dated 1986).

One data set concerns Reo virus-1. Kind of data set: Test 2: antiviral activity, reo virus-1 in Vero cells. In kind it is cell-based. Conditions: Reo virus-1, Vero cells; Table 3.
In a further data set the test system is Parainfluenza-virus-3. Kind of data set: microbe, parasite or virus in culture. In kind it is cell-based. As to conditions: Vero.
The test system of another data set is Measles virus. Kind of data set: microbe, parasite or virus in culture. In kind it is cell-based. Conditions: Measles morbillivirus, Vero.
A further data set deals with Sindbis virus. The experiment in a line: microbe, parasite or virus in culture. In kind it is cell-based. As to conditions: Vero.
A further data set concerns Coxsackie virus-B4. Kind of data set: Test 2: antiviral activity, Coxsackie virus-B4 in HeLa cells. In kind it is cell-based. As to conditions: Table 3.
Data set [1] is described as follows: Test 3: cytotoxicity, PRK cells. In kind it is cell-based. Conditions: rabbit, Table 4, read-out: Minimum cytotoxic concentration (MCC). On the procedure:
(§1) A further test was effected to determine the cytotoxicity of the chemical compounds of Table 1. Cell cultures were incubated with varying concentrations of the esters, during a time period equal to the period required for measuring antiviral activity. The compounds (S)-DHPA and (RS)-DHPA were used for comparative purposes. For each compound, the minimum cytotoxic concentration (MCC) was measured, that is the concentration required to cause a microscopically detectable alteration of normal cell morphology, when incubated with the cells in this way.

A short description of data set [2]: Test 3: cytotoxicity, Vero cells. In kind it is cell-based, green monkey. Conditions: monkey, Table 4, read-out: Minimum cytotoxic concentration (MCC). On the procedure:
as §1

The nature of data set [3]: Test 3: cytotoxicity, HeLa cells. As to conditions: human, Table 4, read-out: Minimum cytotoxic concentration (MCC). In kind it is cell-based. On the procedure:
as §1

For data set [4], the system named is Vesicular stomatitis virus. In kind it is cell-based. As to conditions: ratio of MCC (PRK cells) to MIC50 (vesicular stomatitis virus).

As a reminder, the EC50 is the midpoint of the concentration-response curve. Read a low EC50 as higher potency in that assay. As to `CCOC(=O)C(O)Cn1cnc2c(N)ncnc21` (racemic) [Compound 2], the EC50 was 40 µg/mL (≈ 159 µM) in the data set on Reo virus-1; 20 µg/mL (≈ 79.6 µM) in the data set with Parainfluenza-virus-3; 20 µg/mL (≈ 79.6 µM) with Measles virus; above 400 µg/mL in the data set on Sindbis virus; above 400 µg/mL with Coxsackie virus-B4. The MCC in data set [1], in data set [2] and in data set [3] was above 400 µg/mL in each case. The antiviral index entry is listed as “higher than 100 -fold” in data set [4] and “higher than 400 -fold” in [4] (listed as racemic ethyl).

For `CCCOC(=O)C(O)Cn1cnc2c(N)ncnc21` (racemic) [Compound 3], the concentration for a half-maximal effect (EC50) is 200 µg/mL (≈ 754 µM) with Reo virus-1; 100 µg/mL (≈ 377 µM) in the data set with Parainfluenza-virus-3; 100 µg/mL (≈ 377 µM) in the data set on Measles virus; above 200 µg/mL in the data set with Sindbis virus; above 400 µg/mL with Coxsackie virus-B4. The values for the MCC in data set [1], in data set [2] and in data set [3] were 100 µg/mL, 400 µg/mL and 400 µg/mL, respectively.

As for `CC(C)OC(=O)C(O)Cn1cnc2c(N)ncnc21` (racemic) [Compound 4], the EC50 in the data set with Reo virus-1 is 40 µg/mL (≈ 151 µM); in the data set with Parainfluenza-virus-3 it was 70 µg/mL (≈ 264 µM); in the data set on Measles virus, 150 µg/mL (≈ 565 µM); in the data set on Sindbis virus, above 400 µg/mL; in the data set with Coxsackie virus-B4, above 400 µg/mL. For the same compound, the MCC in data set [1], in data set [2] and in data set [3] was above 400 µg/mL in each case. Further, the antiviral index entry in data set [4] is recorded as “higher than 100 -fold”.

Turning to `CCCCOC(=O)C(O)Cn1cnc2c(N)ncnc21` (racemic) [Compound 5], the EC50 in the data set on Reo virus-1 is 150 µg/mL (≈ 537 µM); with Parainfluenza-virus-3, 70 µg/mL (≈ 251 µM); with Measles virus it was 25 µg/mL (≈ 89.5 µM); in the data set on Sindbis virus, 150 µg/mL (≈ 537 µM); in the data set with Coxsackie virus-B4 it was above 400 µg/mL. Also, the figures for the MCC in data set [1], in data set [2] and in data set [3] were 200 µg/mL, 200 µg/mL and 400 µg/mL, respectively.

As to `CCC(C)OC(=O)C(O)Cn1cnc2c(N)ncnc21` (racemic) [Compound 6], the concentration giving a half-maximal response (EC50) in the data set with Reo virus-1 was 70 µg/mL (≈ 251 µM); with Parainfluenza-virus-3, 200 µg/mL (≈ 716 µM); in the data set on Measles virus it was 40 µg/mL (≈ 143 µM); in the data set on Sindbis virus, 300 µg/mL (≈ 1070 µM); in the data set on Coxsackie virus-B4, above 400 µg/mL. Moreover, the MCC in [1], in data set [2] and in [3] was above 400 µg/mL each time. The figures for the antiviral index result in [4] and in data set [4] (listed as 2-butyl) were “higher than 100 -fold” and “higher than 400 -fold”, respectively.

Regarding `CC(C)COC(=O)C(O)Cn1cnc2c(N)ncnc21` (racemic) [Compound 7], the EC50 with Reo virus-1 was 150 µg/mL (≈ 537 µM); in the data set with Parainfluenza-virus-3, 20 µg/mL (≈ 71.6 µM); in the data set with Measles virus, 40 µg/mL (≈ 143 µM); in the data set on Sindbis virus, above 400 µg/mL; in the data set on Coxsackie virus-B4, above 400 µg/mL. Further, the MCC in data set [1], in data set [2] and in [3] was above 400 µg/mL throughout. Further, the antiviral index result was “higher than 100 -fold” in [4] and “higher than 400 -fold” in data set [4] (listed as 2-methylpropyl).

As for `CCCCCCCCOC(=O)C(O)Cn1cnc2c(N)ncnc21` (racemic) [Compound 9], the concentration for a half-maximal effect (EC50) in the data set on Reo virus-1 is 7 µg/mL (≈ 20.9 µM); with Parainfluenza-virus-3, 15 µg/mL (≈ 44.7 µM); in the data set on Measles virus it was 70 µg/mL (≈ 209 µM); in the data set on Sindbis virus, 30 µg/mL (≈ 89.4 µM); in the data set on Coxsackie virus-B4 it was above 100 µg/mL. Further, the MCC in data set [1] stood at 100 µg/mL; in data set [2] it was 200 µg/mL; in data set [3], 100 µg/mL.

Regarding `COCCOC(=O)C(O)Cn1cnc2c(N)ncnc21` (racemic) [Compound 10], the EC50 was 70 µg/mL (≈ 249 µM) with Reo virus-1; 300 µg/mL (≈ 1070 µM) in the data set with Parainfluenza-virus-3; 400 µg/mL (≈ 1420 µM) in the data set on Measles virus; above 400 µg/mL with Sindbis virus; above 400 µg/mL with Coxsackie virus-B4. In addition, the MCC in [1], in data set [2] and in data set [3] was above 400 µg/mL in each case.

As for `Nc1ncnc2c1ncn2CC(O)C(=O)OC1CCCCC1` (racemic) [Compound 11], the EC50 was 7 µg/mL (≈ 22.9 µM) in the data set with Reo virus-1; above 40 µg/mL with Parainfluenza-virus-3; 15 µg/mL (≈ 49.1 µM) in the data set on Measles virus; above 100 µg/mL in the data set on Sindbis virus; above 100 µg/mL in the data set on Coxsackie virus-B4. In addition, the MCC in data set [1], in data set [2] and in [3] was 100 µg/mL each time.
